Test results: PMC11173765 (Molecules, 2024)
Where “and” joins values, the source holds several entries; their conditions need not be identical. Equal entries are not always repeated. Where two headings read alike, the source gives them in different places.

Experiments:
S2R [1] = biological target: T1, S2R (Rattus norvegicus, UniProt Q5U3Y7); experiment: S2R radioligand binding assay ([3H]-DTG with (+)-pentazocine mask, rat liver homogenates); details: for Ki: [3H]-DTG 2 nM, (+)-pentazocine 5 μM mask, rat liver homogenates, mean ± SEM; for S1R/S2R: selectivity ratio Ki S1R / Ki S2R
T1 construct: liver homogenates (250 μg/sample) from male Sprague Dawley rats; from tissue; host or cells: liver homogenate of male Sprague Dawley rats
T1 sequence (Q5U3Y7 1-176): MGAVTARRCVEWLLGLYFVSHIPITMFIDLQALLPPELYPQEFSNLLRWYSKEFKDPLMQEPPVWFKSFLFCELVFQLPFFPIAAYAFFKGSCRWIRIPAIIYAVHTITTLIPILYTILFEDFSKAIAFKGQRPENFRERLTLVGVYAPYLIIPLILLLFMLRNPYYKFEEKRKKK
Protocol: (§1) The S1R and S2R receptor affinities of the test compounds were evaluated in competition tests by radiometric assays.
(§2) Liver homogenates were prepared from Sprague Dawley rats (ENVIGO RMS S.R.L., Udine, Italy) for both S1R and S2R receptor binding assays. […] An Ultima Gold MV Scintillation cocktail was sourced from PerkinElmer (Milan, Italy). Other materials were obtained from Merck Life Science S.r.l. (Milan, Italy). For each compound, a10 mM DMSO stock solution was obtained. From these, diluted test concentrations ranging from 10^−5 M to 10^−11 M wereprepared using the respective assay buffer. Both assays involve the use of a tris buffer (50 mM, pH 8) and liver homogenates (250 μg/sample) from male Sprague Dawley rats. […] The final volume was 0.5 mL [54]. A millipore filter apparatus was employed to separate bound and free radioligands via filtration under conditions of reduced pressure through Whatman GF 6 glass fiber filters. Each filter paper was washed three times with 2 mL of ice-cold tris buffer (50 mM for S1R, 10 mM for S2R; pH 8.0), dried at room temperature, and incubated overnight with 2 mL of Ultima Gold MV Scintillation cocktail in pony vials. Bound radioactivity was determined using a liquid scintillation counter Beckman LS 6500 (Beckman Coulter Diagnostic, Brea, CA, USA. […]

S1R [2] = biological target: T2, S1R (Rattus norvegicus, UniProt Q9R0C9); experiment: S1R radioligand binding assay ([3H]-pentazocine, rat liver homogenates); details: for SR subtype preference: in words, from S1R and S2R binding affinities; for S2R/S1R: selectivity ratio Ki S2R / Ki S1R
T2 construct: liver homogenates (250 μg/sample) from male Sprague Dawley rats; from tissue; host or cells: liver homogenate of male Sprague Dawley rats
Protocol: as §1, §2

HUH-7 = experiment: Cytotoxicity, resazurin viability assay in HUH-7 cells; type: cell-based; details: Homo sapiens, 48 hrs treatment, mean ± SEM
Protocol: (§3) Cytotoxic potency was measured using a resazurin assay (see Supplementary Materials). Cells were treated with increasing concentrations of each compound for 48 hours before the cell viability was assessed (Supplementary Materials).
(§4) Dulbecco’s modified Eagle medium (DMEM; Gibco, Life Technologies, Grand Island, NY, USA), supplemented with 10% (v/v) of fetal bovine serum (FBS) and Antibiotic Antimycotic Solution (100 U penicillin, 100 μg/mL streptomycin and 0.25 μg/mL amphotericin B; Sigma-Aldrich, St. Louis, MO, USA), was used to culture the human cell lines SH-SY5Y [55] (neuroblastoma, ATCC, CRL-2266) and HUH-7 [56] (hepatocarcinoma, Japanese Cancer Research Resources Bank, National Institutes of Biomedical Innovation, Health and Nutrition, NIBIOHN, JCRB0403).
(§5) Cell viability was evaluated using resazurin (SERVA Electrophoresis GmbH, Heidelberg, Germany) as previously described.
(§6) Briefly, a resazurin stock solution (440 μM, 10× in phosphate-buffered saline) was diluted in a culture medium to prepare a 44 μM working solution. Cells (5 × 10^3) were seeded in 96-well plates, incubated with 100µl of resazurin working solution, and fluorescence was measured after 1, 2, and 3 hrs. The background fluorescence of killed cells was subtracted, and viability was calculated relative to control cells treated with DMSO solvent (1%). The fluorescence was measured using an Envision 2104 Multi-label Microplate Reader (Perkin Elmer, Boston, MA, USA) and by setting the excitation wavelength at λ = 530 nm and emission wavelength at λ = 590 nm. Measurements were performed at a time of 0 and after 1 hour of incubation. Cytotoxicity was calculated as 100% minus the percentage of viability.
(§7) Statistical analysis was carried out with GraphPad Prism® 6.0 software. An unpaired t-test was used to compare treated and control cells, with p < 0.05 considered statistically significant. The half-maximal inhibitory concentration (IC50) values for cytotoxicity were determined by analyzing dose-response curves using GraphPad Prism software.

SH-SY5Y = experiment: Cytotoxicity, resazurin viability assay in SH-SY5Y cells; type: cell-based; details: Homo sapiens, 48 hrs treatment, mean ± SEM
Protocol: as §3, §4, §5, §6, §7

S1R [3] = details: read-out: Ki S1R; siramesine literature value; cited from earlier work
S2R [4] = details: read-out: Ki S2R; siramesine literature value; cited from earlier work
[5] = [3H]-pentazocine 2 nM, rat liver homogenates, mean ± SEM, read-out: Ki S1R

T2 sequence (Q9R0C9 whole entry): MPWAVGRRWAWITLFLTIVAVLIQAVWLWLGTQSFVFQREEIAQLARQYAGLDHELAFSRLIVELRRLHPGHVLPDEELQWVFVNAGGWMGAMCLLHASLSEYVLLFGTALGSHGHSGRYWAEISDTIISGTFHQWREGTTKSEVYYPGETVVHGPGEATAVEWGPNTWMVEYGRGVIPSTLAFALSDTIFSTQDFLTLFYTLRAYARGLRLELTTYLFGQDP

Row | Compound | Ki (S2R [1]; read-out: Ki S2R) [nM] | Ki (S1R [2]; [5]) [nM] | SR subtype preference (S1R [2]) | S2R/S1R (S1R [2]) | S1R/S2R (S2R [1]) | melting point [°C] | IC50 (HUH-7) [nM] | IC50 (SH-SY5Y) [nM] | Ki (S2R [1]; Ki S2R) | Ki (S1R [2]) [nM] | Ki (S1R [3]) [nM] | Ki (S2R [4]) [nM]
1 | O=C(CCCN1CCCN(Cc2ccccc2)CC1)c1ccc(F)cc1 [4a, 4-(4-Benzyl-1,4-diazepan-1-yl)-1-(4-fluorophenyl)butan-1-one] | 210 ± 21.4 | 21.6 ± 3.44 | preference for the S1R subtype | 10 | – | – | – | – | – | – | – | –
2 | O=C(CCCN1CCc2ccccc2C1)c1ccc(F)cc1 [4b, 4-(3,4-Dihydroisoquinolin-2(1H)-yl)-1-(4-fluorophenyl)butan-1-one] | 124 ± 16.3 | 44.5 ± 7.39 | preference for the S1R subtype | 2.8 | 0.35 | 45 to 47 | – | – | – | – | – | –
3 | COc1ccc(CN(C)CCCC(=O)c2ccc(F)cc2)cc1OC [4c, 4-((3,4-Dimethoxybenzyl)(methyl)-amino)-1-(4-fluorophenyl)butan-1-one] | 148 ± 10.3 | 301 ± 74.7 | preference for S2R | 0.5 | 2.0 | – | – | – | – | – | – | –
4 | O=C(CCCN1CCN(C2CCCCC2)CC1)c1ccc(F)cc1 [4d, 4-(4-Cyclohexylpiperazin-1-yl)-1-(4-fluorophenyl)butan-1-one] | 13.2 ± 2.78 | 18.8 ± 2.91 | dual SR affinity | 0.7 | 1.4 | 198 to 200 | 163000 ± 18000 | – | – | – | – | –
5 | COc1cc2c(cc1OC)CN(CCCC(=O)c1ccc(F)cc1)CC2 [4e, 4-(6,7-Dimetoxy-3,4-dihydroisoquinolin-2(1H)-yl)-1-(4-fluorophenyl)butan-1-one] | 6.93 ± 0.76 | 1660 ± 118 | preference for S2R | 0.004 | 241 | – | 40000 ± 5000 | 120000 ± 13000 | – | – | – | –
6 | O=C(CCCN1CCN(c2ccc(F)cc2)CC1)c1ccc(F)cc1 [4f, 1-(4-Fluorophenyl)-4-(4-(4-fluorophenyl)piperazin-1-yl)butan-1-one] | 16.4 ± 3.17 | 70.2 ± 23.2 | preference for S2R | 0.23 | 4.3 | 94 to 95 | – | – | – | – | – | –
7 | O=C(CCCN1CCC2(CC1)OCc1ccccc12)c1ccc(F)cc1 [4g, 1-(4-Fluorophenyl)-4-(3H-spiro[isobenzofuran-1,4′-piperidin]-1′-yl)butan-1-one] | – | – | dual SR affinity | 1.46 | 0.7 | 88 to 90 | 16000 ± 2000 | 57000 ± 6000 | 9.2 nM and 9.23 nM | 6.3 ± 1.4 | – | –
8 | Cc1ccc(CN(C)CCCC(=O)c2ccc(F)cc2)c(C)c1 [4h, 4-((2,4-Dimethylbenzyl)(methyl)amino)-1-(4-fluorophenyl)butan-1-one] | 27.7 ± 3.03 | 59.7 ± 7.6 | preference for S2R | 0.46 | 2.1 | – | – | – | – | – | – | –
9 | O=C(CCCN1CCC(c2ccncc2)CC1)c1ccc(F)cc1 [4i, 1-(4-Fluorophenyl)-4-(4-(pyridin-4-yl)piperidin-1-yl)butan-1-one] | 28.3 ± 3.33 | 13.9 ± 3.11 | preference for the S1R subtype | 2.03 | 0.5 | 102 to 104 | – | – | – | – | – | –
10 | COc1ccc(CC2CCN(CCCC(=O)c3ccc(F)cc3)CC2)cc1OC [4j, 4-(4-(3,4-Dimetoxybenzyl)piperidin-1-yl)-1-(4-fluorophenyl)butan-1-one] | 153 ± 30.3 | 6.1 ± 0.58 | preference for the S1R subtype | 25 | 0.04 | – | 37000 ± 6000 | 58000 ± 7000 | – | – | – | –
11 | Fc1ccc(-n2cc(CCCCN3CCC4(CC3)OCc3ccccc34)c3ccccc32)cc1 [SRM, siramesine, reference compound] | – | – | – | 1.2 | 0.8 | – | 2000 ± 250 | 5000 ± 1000 | – | – | 10.5 ± 2.6 | 12.6 ± 0.1
